Test results: PMC10093438, “α-Mangostin Promotes In Vitro and In Vivo Degradation of Androgen Receptor and AR-V7 Splice Variant in Prostate Cancer Cells” (Cancers, 2023)

Target: T1, BiP (GRP78) (Homo sapiens, UniProt P11021)
T1 construct: gene HSPA5; recombinant His-GST-BiP (BiP-N-His-GST), expressed in E. coli
Assay: SPR (Biacore T200, His-capture plus amine coupling on NTA chip)
Format: binding

T1 sequence (P11021 19-654): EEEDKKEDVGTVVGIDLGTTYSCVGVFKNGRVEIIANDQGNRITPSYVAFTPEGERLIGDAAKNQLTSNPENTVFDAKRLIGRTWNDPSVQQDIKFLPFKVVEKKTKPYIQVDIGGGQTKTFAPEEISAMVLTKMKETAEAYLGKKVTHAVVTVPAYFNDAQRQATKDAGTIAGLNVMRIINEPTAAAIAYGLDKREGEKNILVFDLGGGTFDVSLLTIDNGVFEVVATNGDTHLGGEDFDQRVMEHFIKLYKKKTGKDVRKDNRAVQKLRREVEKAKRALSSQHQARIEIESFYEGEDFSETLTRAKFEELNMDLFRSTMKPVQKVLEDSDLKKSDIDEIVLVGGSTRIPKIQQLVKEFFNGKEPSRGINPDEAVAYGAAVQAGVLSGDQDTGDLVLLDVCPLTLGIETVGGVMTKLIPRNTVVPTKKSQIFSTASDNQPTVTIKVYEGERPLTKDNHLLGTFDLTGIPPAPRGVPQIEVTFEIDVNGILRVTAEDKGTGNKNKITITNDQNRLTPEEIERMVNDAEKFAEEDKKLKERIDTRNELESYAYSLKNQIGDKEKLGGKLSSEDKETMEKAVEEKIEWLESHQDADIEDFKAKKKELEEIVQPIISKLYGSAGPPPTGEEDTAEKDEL

Compound: COc1c(O)cc2oc3cc(O)c(CC=C(C)C)c(O)c3c(=O)c2c1CC=C(C)C [α-Mangostin]
- Kd: 21.7 µM
